The text below walks through data of US9464045B2, “Process for the preparation of methionine” (EVONIK DEGUSSA GmbH, priority 2012, dated 2016).

The nature of the data set: Recrystallization of methionine in the presence of additives (procedure of Example 1): amount of foam and bulk density. The note with it: bulk density of dried methionine; additive concentration 400 ppm. The class given is physicochemical. The procedure:
60 g of methionine, 305 g of water and 35 g of crude methionine filtrate were introduced into a flask and circulated via a heat exchanger by pumping at a temperature of 40° C. As a result of the potassium carbonate present in the crude methionine filtrate, the potassium ion concentration was ca. 7 g/kg. A solution, heated to 90° C., of 150 g of methionine in 990.5 ml of water and 109.5 g of crude methionine filtrate was added to this suspension at a rate of 18 ml/min, during which the temperature of the initial charge of suspension was kept at 40° C. After adding 650 ml of the hot solution, 500 ml of suspension were removed and then a further 500 ml of the hot solution were metered in at a rate of 18 ml/min. The resulting suspension was discharged, the amount of foam was determined, and the methionine was filtered off and washed with 300 ml of acetone. After drying the methionine, the bulk density was determined.
The recrystallization experiments were carried out in the presence of the following additives, the stated concentration being established by adding the additive to both starting solutions/suspensions. The concentration data give the total active ingredient content of the additive without water based on the total mass of the solution or suspension. Additive 1 was an aqueous mixture of antifoam and crystallization additive according to EP […] […]

For the substance “polyethoxylated (20 EO) sorbitan tristearate [Additive 24]”, the Bulk density turned out to be 616 g/L.
